Molecular target: T1, KRAS G12C protein (Homo sapiens, UniProt P01116, G12C)
T1 construct: H358 cells (ATCC, CRL-5807) expressing KRAS G12C protein; host or cells: H358 (NCI-H358) cells
Experiment: ERK protein phosphorylation assay (p-ERK) in H358 cells
Type: cell-based
Parameters: scale not given here
Conditions: H358 cells expressing KRAS G12C protein, 3 h incubation with compound; read-out: IC50, inhibiting phosphorylation of KRAS G12C protein-mediated downstream signaling (p-ERK)
Experimental: The cells were cultured in a 5% CO2 cell incubator for 16 h. The serially diluted compound was added to the cell medium with Echo550 at a final DMSO concentration of 0.5%, and the incubation was continued for 3 h. Then 8% paraformaldehyde (Solarbio, P1112) was added at 40 μL/well, followed by incubation at room temperature for 20 min. After one washing with PBS, cold 100% methanol was added at 40 μL/well for permeabilization for 10 min. […] Washing with PBST was performed 3 times, with 2 min of incubation for each washing. […] Washing with PBST was performed 3 times, with 2 min of incubation for each washing. Finally, the cell culture plate was inverted and centrifuged at 1000 rpm for 1 min, after which fluorescence signals were read using Odyssey CLx.

T1 sequence (P01116 1-188 isoform P01116-2 G12C): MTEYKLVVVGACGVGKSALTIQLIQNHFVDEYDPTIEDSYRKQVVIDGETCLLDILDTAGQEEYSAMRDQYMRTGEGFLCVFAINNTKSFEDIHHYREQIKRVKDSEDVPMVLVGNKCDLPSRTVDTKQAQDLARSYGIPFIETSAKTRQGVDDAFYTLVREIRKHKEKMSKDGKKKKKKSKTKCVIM

Structure (SMILES): [2H]C([2H])([2H])c1cccc2cccc(N3CCc4c(nc(OC[C@@H]5CCCN5C)nc4N4CCN(C(=O)C(=C)F)[C@@H](CC#N)C4)C3)c12 [Compound 2, 2-((S)-1-(2-fluoroacryloyl)-4-(7-(8-(methyl-d3)naphthalen-1-yl)-2-(((S)-1-methylpyrrolidin-2-yl)methoxy)-5,6,7,8-tetrahydropyrido[3,4-d]pyrimidin-4-yl)piperazin-2-yl)acetonitrile]
- IC50: < 1000 nM

Structure (SMILES): [2H]C([2H])([2H])c1cccc2cccc(N3CCc4c(nc(OC[C@@H]5CCCN5C)nc4N4CCN(C(=O)/C=C/CNC5CC5)[C@@H](C)C4)C3)c12 [Compound 3, (E)-4-(cyclopropylamino)-1-((S)-2-methyl-4-(7-(8-(methyl-d3)naphthalen-1-yl)-2-(((S)-1-methylpyrrolidin-2-yl)methoxy)-5,6,7,8-tetrahydropyrido[3,4-d]pyrimidin-4-yl)piperazin-1-yl)-2-buten-1-one]
- IC50: < 1000 nM

Structure (SMILES): [2H]C([2H])([2H])c1cccc2cncc(N3CCc4c(nc(OC[C@@H]5CCCN5C)nc4N4CCN(C(=O)C=C)[C@@H](CC#N)C4)C3)c12 [Compound 4, 2-((S)-1-acryloyl-4-(7-(5-(methyl-d3)isoquinolin-4-yl)-2-(((S)-1-methylpyrrolidin-2-yl)methoxy)-5,6,7,8-tetrahydropyrido[3,4-d]pyrimidin-4-yl)piperazin-2-yl)acetonitrile]
- IC50: < 1000 nM

Structure (SMILES): [2H]C([2H])([2H])c1cccc2cccc(N3CCc4c(nc(OC[C@@H]5CCCN5C)nc4N4CCN(C(=O)C(=C)F)[C@@H](C)C4)C3)c12 [Compound 5, 2-fluoro-1-((S)-2-methyl-4-(7-(8-(methyl-d3)naphthalen-1-yl)-2-(((S)-1-methylpyrrolidin-2-yl)methoxy)-5,6,7,8-tetrahydropyrido[3,4-d]pyrimidin-4-yl)piperazin-1-yl)-2-propen-1-one]
- IC50: < 1000 nM

Structure (SMILES): C=CC(=O)N1CCN(c2nc(OC[C@@H]3CCCN3C)nc3c2CCN(c2cccc4cccc([11CH3])c24)C3)C[C@@H]1CC#N [Compound 6, 2-((S)-1-acryloyl-4-(7-(8-(methyl-^11C)naphthalen-1-yl)-2-(((S)-1-methylpyrrolidin-2-yl)methoxy)-5,6,7,8-tetrahydropyrido[3,4-d]pyrimidin-4-yl)piperazin-2-yl)acetonitrile]
- IC50: < 1000 nM

Structure (SMILES): [2H]C([2H])([2H])c1cccc2cccc(N3CCc4c(nc(OC[C@@H]5CCCN5C)nc4N4CCN(C(=O)C(=C)F)C[C@@H]4C)C3)c12 [Compound 7, 2-fluoro-1-((S)-3-methyl-4-(7-(8-(methyl-d3)naphthalen-1-yl)-2-(((S)-1-methylpyrrolidin-2-yl)methoxy)-5,6,7,8-tetrahydropyrido[3,4-d]pyrimidin-4-yl)piperazin-1-yl)-2-propen-1-one]
- IC50: < 1000 nM

Structure (SMILES): [2H]C([2H])([2H])c1cccc2cccc(N3CCc4c(nc(OC[C@@H]5CCCN5C)nc4N4CCN(C(=O)C=C)C[C@@H]4C)C3)c12 [Compound 8, 1-((S)-3-methyl-4-(7-(8-(methyl-d3)naphthalen-1-yl)-2-(((S)-1-methylpyrrolidin-2-yl)methoxy)-5,6,7,8-tetrahydropyrido[3,4-d]pyrimidin-4-yl)piperazin-1-yl)-2-propen-1-one]
- IC50: < 1000 nM

Structure (SMILES): C=C(F)C(=O)N1CCN(c2nc(OC[C@@H]3CCCN3C)nc3c2CCN(c2cccc4cccc([11CH3])c24)C3)C[C@@H]1CC#N [Compound 9, 2-((S)-1-(2-fluoroacryloyl)-4-(7-(8-(methyl-^11C)naphthalen-1-yl)-2-(((S)-1-methylpyrrolidin-2-yl)methoxy)-5,6,7,8-tetrahydropyrido[3,4-d]pyrimidin-4-yl)piperazin-2-yl)acetonitrile]
- IC50: < 1000 nM

Structure (SMILES): C=CC(=O)N1CCN(c2nc(OC[C@@H]3CCCN3C)nc3c2CCN(c2cccc4cccc([13CH3])c24)C3)C[C@@H]1CC#N [Compound 10, 2-((S)-1-acryloyl-4-(7-(8-(methyl-^13C)naphthalen-1-yl)-2-(((S)-1-methylpyrrolidin-2-yl)methoxy)-5,6,7,8-tetrahydropyrido[3,4-d]pyrimidin-4-yl)piperazin-2-yl)acetonitrile]
- IC50: < 1000 nM

Structure (SMILES): C=C(F)C(=O)N1CCN(c2nc(OC[C@@H]3CCCN3C)nc3c2CCN(c2cccc4cccc([13CH3])c24)C3)C[C@@H]1CC#N [Compound 11, 2-((S)-1-(2-fluoroacryloyl)-4-(7-(8-(methyl-^13C)naphthalen-1-yl)-2-(((S)-1-methylpyrrolidin-2-yl)methoxy)-5,6,7,8-tetrahydropyrido[3,4-d]pyrimidin-4-yl)piperazin-2-yl)acetonitrile]
- IC50: < 1000 nM

Structure (SMILES): C=CC(=O)N1CCN(c2nc(OC[C@@H]3CCCN3C)nc3c2CCN(c2cccc4cccc([14CH3])c24)C3)C[C@@H]1CC#N [Compound 12, 2-((S)-1-acryloyl-4-(7-(8-(methyl-^14C)naphthalen-1-yl)-2-(((S)-1-methylpyrrolidin-2-yl)methoxy)-5,6,7,8-tetrahydropyrido[3,4-d]pyrimidin-4-yl)piperazin-2-yl)acetonitrile]
- IC50: < 1000 nM

Structure (SMILES): C=C(F)C(=O)N1CCN(c2nc(OC[C@@H]3CCCN3C)nc3c2CCN(c2cccc4cccc([14CH3])c24)C3)C[C@@H]1CC#N [Compound 13, 2-((S)-1-(2-fluoroacryloyl)-4-(7-(8-(methyl-^14C)naphthalen-1-yl)-2-(((S)-1-methylpyrrolidin-2-yl)methoxy)-5,6,7,8-tetrahydropyrido[3,4-d]pyrimidin-4-yl)piperazin-2-yl)acetonitrile]
- IC50: < 1000 nM

Structure (SMILES): C=C(F)C(=O)N1CCN(c2nc(OC[C@@H]3CCCN3C)nc3c2CCN(c2cncc4cccc([14CH3])c24)C3)C[C@@H]1CC#N [Compound 14, 2-((S)-1-(2-fluoroacryloyl)-4-(7-(5-(methyl-^14C)isoquinolin-4-yl)-2-(((S)-1-methylpyrrolidin-2-yl)methoxy)-5,6,7,8-tetrahydropyrido[3,4-d]pyrimidin-4-yl)piperazin-2-yl)acetonitrile]
- IC50: < 1000 nM

Structure (SMILES): C=CC(=O)N1CCN(c2nc(OC[C@@H]3CCCN3C)nc3c2CCN(c2cncc4cccc([13CH3])c24)C3)C[C@@H]1CC#N [Compound 15, 2-((S)-1-acryloyl-4-(7-(5-(methyl-^13C)isoquinolin-4-yl)-2-(((S)-1-methylpyrrolidin-2-yl)methoxy)-5,6,7,8-tetrahydropyrido[3,4-d]pyrimidin-4-yl)piperazin-2-yl)acetonitrile]
- IC50: < 1000 nM

Structure (SMILES): C=C(F)C(=O)N1CCN(c2nc(OC[C@@H]3CCCN3C)nc3c2CCN(c2cncc4cccc([13CH3])c24)C3)C[C@@H]1CC#N [Compound 16, 2-((S)-1-(2-fluoroacryloyl)-4-(7-(5-(methyl-^13C)isoquinolin-4-yl)-2-(((S)-1-methylpyrrolidin-2-yl)methoxy)-5,6,7,8-tetrahydropyrido[3,4-d]pyrimidin-4-yl)piperazin-2-yl)acetonitrile]
- IC50: < 1000 nM

Structure (SMILES): [2H]C([2H])([2H])N1CCC[C@H]1COc1nc2c(c(N3CCN(C(=O)/C=C/CNC4CC4)[C@@H](CC#N)C3)n1)CCN(c1cccc3cccc(C)c13)C2 [Compound 19, 2-((S)-1-((E)-4-(cyclopropylamino)-2-butenoyl)-4-(2-(((S)-1-(methyl-d3)pyrrolidin-2-yl)methoxy)-7-(8-methylnaphthalen-1-yl)-5,6,7,8-tetrahydropyrido[3,4-d]pyrimidin-4-yl)piperazin-2-yl)acetonitrile]
- IC50: < 1000 nM

Source: patent US20230257374A1, “NOVEL KRAS G12C PROTEIN INHIBITOR, PREPARATION METHOD THEREFOR, AND USE THEREOF” (INNOVENT BIOLOGICS (SUZHOU) CO., LTD., priority 2019, published 2023)
